Patent US8309554B2 (priority 2008, dated 2012)
Where a name gives a salt, the structure may show the parent alone. Read-outs that look alike come from different tables or passages of the source.

Key:
H460 = experiment: cells; type: cell-based; settings: for IC50: Homo sapiens, NCI-H460, 2 h
HT29 = experiment: cells; type: cell-based; settings: for IC50: Homo sapiens, HT-29, 2 h

Structure (SMILES) | H460 HCR: Air/N2 (H460) | IC50 (H460; read-out: 2 hr Air H460 IC50) | IC50 (H460; read-out: 2 hr N2 H460 IC50) | HT29 HCR: Air/N2 (HT29) | IC50 (HT29; read-out: 2 hr Air HT29 IC50) | IC50 (HT29; read-out: 2 hr N2 HT29 IC50)
O=[N+]([O-])c1sccc1CS(=O)(=O)Oc1ccc(N(CCCl)CCCl)c(F)c1 [TH-1192, 3-((3-Fluoro-4-(N,N-bis-(2-chloroethyl)amino)phenoxy)sulfonyl)methyl-2-nitrothiophene] | 39 | 59.2 µM | 1.5 µM | 20 | 162 µM | 8 µM
O=[N+]([O-])c1sccc1C(CNS(=O)(=O)c1ccccc1)S(=O)(=O)Oc1ccc(N(CCCl)CCCl)cc1 (centres unmarked) [TH-1218, 3-(4-(N,N-bis-(2-Chloroethyl)amino)phenoxysulfonyl-(phenylsulfonylaminomethyl))methyl-2-nitrothiophene] | 106 | 74 µM | 0.7 µM |  | > 300 µM | > 300 µM
Nc1ccc(CC(c2ccsc2[N+](=O)[O-])S(=O)(=O)Oc2ccc(N(CCCl)CCCl)cc2)cn1 (centres unmarked) [TH-1255, 3-(4-(N,N-bis-(2-Chloroethyl)amino)phenoxysulfonyl-(2-aminopyridin-5-yl-methyl))methyl-2-nitrothiophene trifluoroacetate] | 30.7 | 61.4 µM | 2 µM | 16 | 204 µM | 13 µM
CS(=O)(=O)N(c1ccc(CC(c2ccsc2[N+](=O)[O-])S(=O)(=O)Oc2ccc(N(CCCl)CCCl)cc2)cn1)S(C)(=O)=O (centres unmarked) [TH-1257] | 424.0 | 212 µM | 0.5 µM |  | > 300 µM | > 300 µM
CC(=O)Nc1ccc(CC(c2ccsc2[N+](=O)[O-])S(=O)(=O)Oc2ccc(N(CCCl)CCCl)cc2)cn1 (centres unmarked) [TH-1271] | 236 | 236 µM | 1 µM | 1.3 | 977 µM | 760 µM
O=[N+]([O-])c1sccc1C(CCS(=O)(=O)c1ccccc1)S(=O)(=O)Oc1ccc(N(CCCl)CCCl)cc1 (centres unmarked) [TH-1278] | 205 | 61.4 µM | 0.3 µM |  | > 1000 µM | > 1000 µM
O=[N+]([O-])c1sccc1C(CCS(=O)(=O)Oc1ccccc1)S(=O)(=O)Oc1ccc(N(CCCl)CCCl)cc1 (centres unmarked) [TH-1292, 3-(4-(N,N-bis-(2-Chloroethyl)amino)phenoxysulfonyl-(2-phenoxysulfonylethyl))methyl-2-nitrothiophene] | 127.7 | 195 µM | 1.5 µM | 158 | 760 µM | 4.8 µM
O=[N+]([O-])c1sccc1C(CCS(=O)(=O)N1CCOCC1)S(=O)(=O)Oc1ccc(N(CCCl)CCCl)cc1 (centres unmarked) [TH-1303] | 69 | 75.5 µM | 1.1 µM |  | > 300 µM | > 300 µM
O=[N+]([O-])c1sccc1C(CNS(=O)(=O)c1ccc(F)cc1)S(=O)(=O)Oc1ccc(N(CCCl)CCCl)cc1 (centres unmarked) [TH-1311] | 143 | 57.3 µM | 0.4 µM |  | > 300 µM | > 300 µM
CN(C)c1ccc(CC(c2ccsc2[N+](=O)[O-])S(=O)(=O)Oc2ccc(N(CCCl)CCCl)cc2)cn1 (centres unmarked) [TH-1316] | 179 | 179 µM | 1 µM |  | > 300 µM | > 300 µM
O=[N+]([O-])c1sccc1C(Cc1ccc(OCCO)cc1)S(=O)(=O)Oc1ccc(N(CCCl)CCCl)cc1 (centres unmarked) [TH-1325] | 929 | 92.9 µM | 0.1 µM |  | > 300 µM | > 300 µM
CN1CCN(S(=O)(=O)CCC(c2ccsc2[N+](=O)[O-])S(=O)(=O)Oc2ccc(N(CCCl)CCCl)cc2)CC1 (centres unmarked) [TH-1326, 3-(4-(N,N-bis-(2-Chloroethyl)amino)phenoxysulfonyl-(2-((N-methylpiperazin-4-yl)sulfonyl)ethyl))methyl-2-nitrothiophene] | 42 | 16.6 µM | 0.4 µM | 48 | 126 µM | 2.6 µM
O=C1c2ccccc2C(=O)N1CC(c1ccsc1[N+](=O)[O-])S(=O)(=O)Oc1ccc(N(CCCl)CCCl)cc1 (centres unmarked) [TH-1327] | 178 | 107 µM | 0.6 µM |  | > 1000 µM | > 1000 µM
CC(C)Nc1ccc(CC(c2ccsc2[N+](=O)[O-])S(=O)(=O)Oc2ccc(N(CCCl)CCCl)cc2)cn1 (centres unmarked) [TH-1328] | 187 | 261 µM | 1.4 µM | 3.3 | 151 µM | 46 µM
Nc1ccc(CC(c2ccsc2[N+](=O)[O-])S(=O)(=O)Oc2ccc(N(CCCl)CCCl)cc2)cc1.O=C(O)C(F)(F)F (centres unmarked) [TH-1330, 3-(4-(N,N-bis-(2-Chloroethyl)amino)phenoxysulfonyl-(4-aminophenylmethyl))methyl-2-nitrothiophene] | 253 | 228 µM | 0.9 µM | 21 | 186 µM | 9 µM
O=[N+]([O-])c1sccc1C(Cn1nnc2ccccc21)S(=O)(=O)Oc1ccc(N(CCCl)CCCl)cc1 (centres unmarked) [TH-1343, 3-(4-(N,N-bis-(2-Chloroethyl)amino)phenoxysulfonyl-(benzotriazol-1-yl-methyl))methyl-2-nitrothiophene] | 133 | 93 µM | 0.7 µM | >4.2 | > 1000 µM | 24 µM
CC(=O)Nc1ccc(CC(c2ccsc2[N+](=O)[O-])S(=O)(=O)Oc2ccc(N(CCCl)CCCl)cc2)cc1 (centres unmarked) [TH-1346] | 200 | 220 µM | 1.1 µM | 3.2 | 145 µM | 46 µM

Structure (SMILES) | H460 HCR: Air/N2 (H460) | IC50 (H460; read-out: 2 hr Air H460 IC50) | IC50 (H460; read-out: 2 hr N2 H460 IC50) | HT29 HCR: Air/N2 (HT29) | IC50 (HT29; read-out: 2 hr Air HT29 IC50) | IC50 (HT29; read-out: 2 hr N2 HT29 IC50)
O=[N+]([O-])c1sccc1C(CCS(=O)(=O)N1CCC(O)CC1)S(=O)(=O)Oc1ccc(N(CCCl)CCCl)cc1 (centres unmarked) [TH-1347] | 76 | 136 µM | 1.8 µM | 20 | 398 µM | 20 µM
O=[N+]([O-])c1sccc1C(Cc1ccccn1)S(=O)(=O)Oc1ccc(N(CCCl)CCCl)cc1 (centres unmarked) [TH-1357] | 41 | 127 µM | 3.1 µM | >2 | > 1000 µM | 500 µM
CN(C)S(=O)(=O)CCC(c1ccsc1[N+](=O)[O-])S(=O)(=O)Oc1ccc(N(CCCl)CCCl)cc1 (centres unmarked) [TH-1360] | ~70 | ~300 µM | 4.3 µM |  | > 1000 µM | > 1000 µM
COc1ccc(CC(c2ccsc2[N+](=O)[O-])S(=O)(=O)Oc2ccc(N(CCCl)CCCl)cc2)c(OC)n1 (centres unmarked) [TH-1362] | 46 | 253 µM | 5.5 µM |  | > 1000 µM | > 1000 µM
O=[N+]([O-])c1sccc1C(CCS(=O)(=O)c1ccncc1)S(=O)(=O)Oc1ccc(N(CCCl)CCCl)cc1 (centres unmarked) [TH-1363] | 113 | 68 µM | 0.6 µM |  | > 1000 µM | > 1000 µM
CC(=O)Nc1ccncc1CC(c1ccsc1[N+](=O)[O-])S(=O)(=O)Oc1ccc(N(CCCl)CCCl)cc1 (centres unmarked) [TH-1364] | 36 | 64 µM | 1.8 µM | 27 | 350 µM | 13 µM
Cn1ccnc1CC(c1ccsc1[N+](=O)[O-])S(=O)(=O)Oc1ccc(N(CCCl)CCCl)cc1 (centres unmarked) [TH-1366] | 40 | 20 µM | 0.5 µM | 14 | 180 µM | 13 µM
O=[N+]([O-])c1sccc1C(CCS(=O)(=O)c1ccc(C(F)(F)F)cn1)S(=O)(=O)Oc1ccc(N(CCCl)CCCl)cc1 (centres unmarked) [TH-1369] | 131 | 236 µM | 1.8 µM |  | > 1000 µM | > 1000 µM
Nc1ncccc1CC(c1ccsc1[N+](=O)[O-])S(=O)(=O)Oc1ccc(N(CCCl)CCCl)cc1.O=C(O)C(F)(F)F (centres unmarked) [TH-1374] | 73 | 145 µM | 2 µM | 23 | 630 µM | 28 µM
CC(=O)Nc1ncccc1CC(c1ccsc1[N+](=O)[O-])S(=O)(=O)Oc1ccc(N(CCCl)CCCl)cc1 (centres unmarked) [TH-1375] | 93 | 28 µM | 0.3 µM | 16 | 280 µM | 17 µM
CC(=O)Nc1cc(CC(c2ccsc2[N+](=O)[O-])S(=O)(=O)Oc2ccc(N(CCCl)CCCl)cc2)ccn1 (centres unmarked) [TH-1376] | 236 | 212 µM | 0.9 µM | 10 | 540 µM | 52 µM
O=C(CO)Nc1ncccc1CC(c1ccsc1[N+](=O)[O-])S(=O)(=O)Oc1ccc(N(CCCl)CCCl)cc1 (centres unmarked) [TH-1384] | 30 | 64 µM | 2.1 µM | 16 | 275 µM | 17 µM
O=[N+]([O-])c1sccc1C(CCS(=O)(=O)CCO)S(=O)(=O)Oc1ccc(N(CCCl)CCCl)cc1 (centres unmarked) [TH-1388] | 35 | 49 µM | 1.4 µM | 30 | 420 µM | 14 µM
O=[N+]([O-])c1sccc1C(Cc1cnc(O)c(Cl)c1)S(=O)(=O)Oc1ccc(N(CCCl)CCCl)cc1 (centres unmarked) [TH-1393] | 89 | 151 µM | 1.7 µM |  | 710 µM | 110 µM
O=C(CO)Nc1ccc(CC(c2ccsc2[N+](=O)[O-])S(=O)(=O)Oc2ccc(N(CCCl)CCCl)cc2)cc1 (centres unmarked) [TH-1400] | 54.3 | 76 µM | 1.4 µM | 2.1 | 170 µM | 80 µM
C[C@H](O)[C@H](C)Oc1ccc(CC(c2ccsc2[N+](=O)[O-])S(=O)(=O)Oc2ccc(N(CCCl)CCCl)cc2)cn1 (some centres unmarked) [TH-1486] | 36 | 36 µM | 1 µM |  |  | 
